Data reported in US20110124745A1, “Switchable Anionic Surfactants and Methods of Making and Using Same” (priority 2009, published 2011).

Assays:
[1] = Soil washing: amount of oil removed from contaminated sand
Experimental: Oil-contaminated soil was prepared in the following manner. North Sea crude oil (2.4 to 2.6 g) (Chevron, San Ramon, Calif., USA) was poured into a beaker. Tetrahydrofuran (THF) (to dissolution, approximately 50 mL) was added and the beaker and its contents were swirled to dissolve the oil. Ottawa sand (60 g) (EMD Chemicals, Gibbstown N.J., USA) was poured into the beaker and the contents of the beaker was swirled again. The beaker was left uncovered overnight at room temperature to allow the THF to evaporate. Then, the sand was broken up and mixed in the beaker. The beaker was left uncovered for a further time period so that total elapsed time for evaporation was 24 hours. The contaminated sand was then poured into a pre-weighed petrie dish, which was then placed into an oven at 110° C. and heated for 24 hours. After the petrie dish was removed from the oven and had cooled to room temperature, the sample and dish were weighed together. The contaminated sand was then transferred to a 100 mL amber vial for storage. This heat treatment was intended to simulate weathering of the contaminated soil. This procedure provided a sample of soil with 3.0 wt % oil contamination.
A 0.5 wt % surfactant solution was prepared in the following manner: surfactant (0.25 g) was added to a 50 mL volumetric flask. Deionized water at room temperature was added to achieve a total mass of 50 g. Sonication of the solution assisted with dissolving the surfactant.
A 0.5 wt % surfactant solution was prepared in the following manner: Deionized water was heated to 50° C. Surfactant (0.25 g) was added to a 50 mL volumetric flask. The heated water was added to achieve a total mass of 50 g. Swirling and shaking of the flask was sufficient to dissolve the surfactant.
A 0.1 wt % surfactant solution was also prepared using the above-described procedure wherein 0.0583 g of surfactant was used.
The contaminated sand of Example 7A was washed in the following manner. Three 20 mL vials were labelled and their empty masses were, recorded. Contaminated sand (5.1 g) was added to each vial and the vial's new masses were recorded. The surfactant solution was added to each vial using a syringe to achieve 10 g of solution. A stir bar was also added. The vials were capped with TEFLON®-lined lids and shaken manually for 20 seconds. The vials were placed in a beaker, to keep them upright. The beaker was placed on a stir plate and the vials were stirred at 470 rpm for 1 hour. Each vial was then manually shaken for 20 seconds. Then the stirring was continued for a second hour. The liquid portion of the samples was poured into separate 20 mL vials and is referred to below as “first decant solution”. The original vials (and their remaining contents) were each rinsed with 50 mL of deionized water and that rinse water was then added to 50 mL Wheaton jars and is referred to below as “wash solution”.
Sand washing was also carried out at elevated temperature by following the procedure as described in Example 7D with the difference that vials were placed into a 50° C. water bath. The water bath was placed on a stirring hot plate and was maintained 50° C. and the vials were stirred at 470 rpm for 1 hour. Each vial was then manually shaken for 20 seconds. Then the stirring was continued for a second hour. The liquid portion of the samples was poured into separate 20 mL vials and is referred to below as “first decant solution”. The original vials were each rinsed with 50 mL of deionized water and that rinse water was then added to 50 mL Wheaton jars and is referred to below as “wash solution”.
Oil remaining on the soil of Examples 7A-E was quantified in the following manner. An extraction was performed using 10 mL of a 1:1 dichloromethane:hexanes liquid mixture. This mixture was added to vials housing washed sand (the term “washed sand” refers to 5.1 g of contaminated sand from Example 7A that has been washed and rinsed using the procedures of Example 7D or 7E). […]

[2] = Solubility observations (aqueous solution, DMSO); assay type: physicochemical; settings: DMSO
Description: The following study confirmed that compounds (1A) and (1N) reversibly convert from the neutral form (1N) to the anionic form (1A) and back to the neutral form over and over again with substantially no loss of product. The conversion was verified visually since the neutral form was not soluble in aqueous solution and appeared as a white precipitate in colourless liquid while the anionic form was fully soluble in aqueous solution and appeared as a clear yellow liquid (see FIG. 2). In addition to visual examination, ^1H NMR studies that are described below confirmed the presence of the hydroxyl proton in the spectra of the neutral form.
(§1) Since n-octyl 4-hydroxy-3-nitrobenzoate (1N) and the […] salt of (1A) are soluble in DMSO and have some characteristic signals in the ^1H NMR spectrum, […] was used as a solvent to monitor the non-aqueous switchability by NMR spectroscopy.

[3] = Switchability using DMSO-d6 (CO2 bubbling, 1H NMR); assay type: physicochemical; settings: 0.01 M solution in DMSO-d6, non-aqueous
Description: as §1

[4] = 50° C. Washing, 0.5 wt % surfactant solution
[5] = Room Temperature Washing, 0.5 wt % surfactant solution

| Compound | Amount of oil removed from sand [1, 4] | Amount of oil removed from sand ([1]; Room Temperature Washing, 0.5 wt % surfactant solution, Sulfate) [%] | Amount of oil removed from sand ([1]; Room Temperature Washing, 0.5 wt % surfactant solution, listed as sodium dodecyl sulfate (SDS), Sulfate) [%] | Amount of oil removed from sand ([1]; 50° C. Washing, 0.1 wt % surfactant solution) [%] | Amount of oil removed from sand [1, 5] [%] | solubility in DMSO [2] | conversion on CO2 bubbling by 1H NMR [3] |
| --- | --- | --- | --- | --- | --- | --- | --- |
| CCCCCCCCCCCCOS(=O)(=O)[O-].[Na+] [Sodium Dodecyl Sulfate (SDS), Sodium Dodecyl Sulfate] | 86% | 40 | 40 | – | – | – | – |
| CCCCCCCCOC(=O)c1ccc(O)c([N+](=O)[O-])c1.[Na] [Sodium octyl 4-hydroxy-3-nitrobenzoate] | 94-97% | – | – | 94 | 82 | – | – |
| Triton X-100 | 94% | – | – | – | 68 | – | – |
| potassium 4-hydroxy-3-nitrobenzoate [potassium salt of (1A)] | – | – | – | – | – | soluble | no conversion was apparent |
